Each block holds one compound with its values, some of them ahead of it. The source made the active and inactive calls. The rule behind the calls is not given here.
How the values were obtained:
[1] = biological target: Beta-2 adrenergic receptor (Homo sapiens) (UniProt P07550); test: Drug concentration which produces cAMP response equal to 50% of its maximal response against human beta-2-adrenoceptor in chinese hamster ovary cells was determined; Not active; assay type: functional, cell-based
[2] = biological target: T1, Beta-3 adrenergic receptor (Homo sapiens, UniProt P13945); test: Drug concentration which produces cAMP response equal to 50% of its maximal response against human beta-3-adrenoceptor in chinese hamster ovary cells was determined; Not active; assay type: functional, cell-based
Target sequence in this assay (P13945 whole entry, looked up): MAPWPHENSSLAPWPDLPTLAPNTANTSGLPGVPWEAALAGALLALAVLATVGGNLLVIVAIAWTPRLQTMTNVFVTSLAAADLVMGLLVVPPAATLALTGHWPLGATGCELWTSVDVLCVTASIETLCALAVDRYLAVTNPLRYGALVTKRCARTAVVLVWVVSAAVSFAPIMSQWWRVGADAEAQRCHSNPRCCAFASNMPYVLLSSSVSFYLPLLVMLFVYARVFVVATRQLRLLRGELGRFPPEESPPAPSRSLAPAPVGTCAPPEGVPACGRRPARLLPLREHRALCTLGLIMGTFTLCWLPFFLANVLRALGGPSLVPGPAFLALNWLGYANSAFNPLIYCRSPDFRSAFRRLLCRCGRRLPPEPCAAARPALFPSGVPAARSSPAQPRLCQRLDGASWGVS

[3] = biological target: Beta-1 adrenergic receptor (Homo sapiens) (UniProt P08588); conditions: ovary
Beta-1 adrenergic receptor (Homo sapiens), sequence (P08588 whole entry, looked up): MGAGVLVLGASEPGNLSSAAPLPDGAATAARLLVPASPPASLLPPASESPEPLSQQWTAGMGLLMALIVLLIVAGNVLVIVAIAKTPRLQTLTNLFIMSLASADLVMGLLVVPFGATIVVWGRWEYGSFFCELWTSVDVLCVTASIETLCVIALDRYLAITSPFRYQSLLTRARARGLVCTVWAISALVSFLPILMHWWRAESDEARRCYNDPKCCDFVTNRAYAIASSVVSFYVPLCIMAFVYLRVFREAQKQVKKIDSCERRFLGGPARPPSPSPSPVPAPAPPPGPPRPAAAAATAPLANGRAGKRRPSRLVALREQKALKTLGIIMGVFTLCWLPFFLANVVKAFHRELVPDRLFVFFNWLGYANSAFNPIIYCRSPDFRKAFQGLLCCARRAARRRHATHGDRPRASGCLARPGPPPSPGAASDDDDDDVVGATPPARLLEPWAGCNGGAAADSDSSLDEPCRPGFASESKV

[4] = biological target: T1, Beta-3 adrenergic receptor; conditions: ovary
Target sequence in this assay (P13945 whole entry, looked up): as the sequence (P13945 whole entry, looked up) above
Description: Drug concentration which produces cAMP response equal to 50% of its maximal response against human beta-3-adrenoceptor expressed in chinese hamster ovary cells was determined

[5] = biological target: T1, Beta-3 adrenergic receptor; test: Intrinsic activity expressed as the percentage of maximal analogue response relative to the maximal response(100%) of isoproterenol against human beta-3-adrenoceptor; assay type: functional
Target sequence in this assay (P13945 whole entry, looked up): as above

[6] = biological target: Beta-1 adrenergic receptor (Homo sapiens) (UniProt P08588); test: Intrinsic activity expressed as the percentage of maximal analogue response relative to the maximal response(100%) of isoproterenol against human beta-1-adrenoceptor; assay type: functional
[7] = biological target: T1, Beta-3 adrenergic receptor; test: Intrinsic activity expressed as the percentage of maximal analogue response relative to the maximal response(100%) of isoproterenol against human beta-3-adrenoceptor using CRE-LUC assay; assay type: functional
Target sequence in this assay (P13945 whole entry, looked up): as above

[8] = biological target: T1, Beta-3 adrenergic receptor; test: Drug concentration which produces a cAMP response equal to 50% of its maximal response against human beta-3-adrenoceptor using CRE-LUC assay; assay type: functional
Target sequence in this assay (P13945 whole entry, looked up): as above

[9] = biological target: T1, Beta-3 adrenergic receptor; test: Drug concentration which produces cAMP response equal to 50% of its maximal response against human beta 3-adrenoceptor in chinese hamster ovary cells was determined; assay type: functional, cell-based
Target sequence in this assay (P13945 whole entry, looked up): as above

[10] = biological target: Beta-1 adrenergic receptor (Homo sapiens) (UniProt P08588)
[11] = biological target: Beta-2 adrenergic receptor (Homo sapiens) (UniProt P07550)
[12] = biological target: Beta-2 adrenergic receptor (Homo sapiens) (UniProt P07550); conditions: ovary
[13] = biological target: T1, Beta-3 adrenergic receptor; test: Binding Affinity against human Beta-3 adrenergic receptor expressed in Chinese hamster ovary(CHO) cells was measured by using [125I]ICYP radioligand; assay type: cell-based
Target sequence in this assay (P13945 whole entry): as the sequence (P13945 whole entry, looked up) above

[14] = biological target: Beta-1 adrenergic receptor (Homo sapiens) (UniProt P08588); conditions: ovary; remark: listed apart in the source
Description: Drug concentration which produces cAMP response equal to 50% of its maximal response against human beta-1-adrenoceptor in chinese hamster ovary cells was determined

[15] = biological target: Beta-2 adrenergic receptor (Homo sapiens) (UniProt P07550); conditions: ovary; remark: listed apart in the source
[16] = biological target: Beta-1 adrenergic receptor (Homo sapiens) (UniProt P08588); test: Intrinsic activity expressed as the percentage of maximal analogue response relative to the maximal response(100%) of isoproterenol against human beta-1-adrenoceptor using CRE-LUC assay; assay type: functional

Beta-2 adrenergic receptor (Homo sapiens), sequence (P07550 whole entry, looked up): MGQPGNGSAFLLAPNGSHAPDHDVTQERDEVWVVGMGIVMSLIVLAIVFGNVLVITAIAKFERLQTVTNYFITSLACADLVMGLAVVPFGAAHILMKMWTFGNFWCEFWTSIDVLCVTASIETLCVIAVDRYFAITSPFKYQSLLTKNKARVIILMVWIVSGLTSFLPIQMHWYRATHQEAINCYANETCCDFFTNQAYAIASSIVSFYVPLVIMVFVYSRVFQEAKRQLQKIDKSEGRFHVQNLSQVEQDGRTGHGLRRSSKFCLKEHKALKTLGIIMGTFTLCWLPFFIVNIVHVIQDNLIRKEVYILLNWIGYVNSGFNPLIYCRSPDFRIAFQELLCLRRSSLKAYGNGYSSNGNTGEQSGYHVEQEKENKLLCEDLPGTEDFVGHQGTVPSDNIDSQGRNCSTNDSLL

Structure (SMILES): CC(C)NCC(O)c1ccc(O)c(O)c1 (stereo not drawn)
pKact [4]: 7.37

Structure (SMILES): COc1c(I)cc(CC2NCCc3cc(O)c(O)cc32)cc1I (stereo not drawn)
Ki [13]: 0.0214 µM
pKact [14]: 8.11
pKact [4]: 8.76
pKact [15]: 8.47

Structure (SMILES): COc1cc(CCNCCc2cnc(N)s2)cc(OC)c1OC
pKact [1]: inactive
pKact [2]: inactive
Intrinsic activity [7]: < 10
Intrinsic activity [16]: < 10
pKact [3]: inactive

Structure (SMILES): COc1cc(C[C@@H]2NCCc3cc(O)c(O)cc32)cc(OC)c1OC
pKact [14]: 8.7
pKact [4]: 8.6
pKact [15]: 8.33

Second part, the compound after the results:

pKact [1]: inactive
pKact [2]: inactive
pKact [3]: inactive
Structure (SMILES): COc1c(I)cc(CC2NCCc3nc(NC(C)=O)sc32)cc1I (stereo not drawn)

pKact [1]: inactive
Intrinsic activity [5]: 54
Intrinsic activity [6]: < 10
pKact [3]: inactive
pKact [4]: 5.06
Structure (SMILES): COc1cc(CC2NCCc3nc(N)sc32)cc(OC)c1OC (stereo not drawn)

Intrinsic activity [7]: 62
pKact [8]: 6.71
pKact [9]: 6.95
pKact [10]: inactive
pKact [3]: inactive
pKact [11]: inactive
pKact [12]: inactive
Structure (SMILES): COc1c(I)cc(CC2NCCc3nc(N)sc32)cc1I (stereo not drawn)

Reference: ChEMBL document CHEMBL1132639, “2-Amino-4-benzyl-4,5,6,7-tetrahydrothiazolo[5,4-c]pyridines: novel selective beta3-adrenoceptor agonists” (J Med Chem, 1999)
